Results as given in publication PMC11875816 (Heliyon, 2025).

How the values were obtained:
Aβ1-42-induced AD mice [1] = assay: Retention test of Morris water maze; format: in vivo; settings: 60 s free swimming, platform removed, control group 9.51 ± 5.2
Description: (§1) The water maze test evaluates the spatial memory of experimental animals by filling a circular pool (120 cm diameter × 60 cm hight) with water to a depth of 30 cm (maintained at 23 ± 2 °C). An escape zone (10 cm diameter) is designated in one section of the four quadrants, with the platform positioned 1 cm below the water surface and made invisible with skim milk powder. If the animal fails to locate the platform within 60 s, it is gently guided there and allowed to familiarize itself for 20 s. The test is conducted at 30-min intervals, four times daily for three consecutive days. Observations are recorded using a ceiling-mounted camera and analyzed using SMART 3.0 software (Panlab S.L., Barcelona, Spain).

TNF-α = TNF-α gene expression in LPS-induced RAW 264.7 macrophages (qPCR); format: cell-based, murine
Description: RAW 264.7 cells at passage 3 were seeded at 1 × 10^5 cells/mL to each well of a 6-well cell culture plate. The cells were cultured until it reached 70−80 % confluency and media were changing every 2 days. Upon confluency, removed the old media and cells were pre-treated with 1 mL non-serum media for 10−15 min in the incubator. All controls and samples, dilutions are prepared in non-serum media. Removed non-serum media and added with LPS (1 μg/mL) in non-serum media for 24 h. Next day, removed the LPS containing media and washed once with 1 × PBS and then the cells were treated with SFN solutions for 1 h. Removed the treatment solution, washed twice with 1 × PBS, pH 7.4. The cells were dissociated and collected by sedimentation (1500 rpm, 6 min).
The total RNA content was extracted following the TRIzol method according to the manufacturer's protocol. Quantification of mRNAs abundance was determined using 1-step reverse transcription real-time quantitative PCR with the QuantiTect SYBR Green RT-PCR Kit (Qiagen, Germany), performed on a Rotor-Gene Q Real-Time system (Qiagen, Germany). […] Target gene expression was normalized to constitutively expressed ACT-β gene, and the relative quantity of target gene mRNAs was expressed as 2^−ΔΔCt using the relative comparative threshold cycle method as previously described [[33], [34], [35]]. […]

Aβ1-42-induced AD mice [2] = assay: Morris water maze test; format: in vivo, ICR male mice; settings: Aβ1-42 AD mice; for average escape latency time over the three days: AD group 42.7 ± 9.13, normal 27.66 ± 3.97
Source text: (§2) Seven-week-old ICR male mice (25−30 g body weight range) were purchased from the Samtaco BIO, KOREA (Osan-si, Gyeonggi-do, Korea). […] All efforts were made to minimize suffering and the number of animals used. One day before dissection, only water was provided and food was fasted. Acclimatized experimental animals were grouped into seven containing 7 mice each (Table 1 and Fig. 1).
(§3) Prepare the test substance at a concentration appropriate for each test using purified water. […] Amyloid beta (Aβ1-42) was prepared and administered following standard protocols. BSEP was orally administered at doses of 200 mg/kg/day and 400 mg/kg/day for one week before and after Aβ1-42 injection, each at a volume of 200 μL. Following intravenous administration, broccoli extract was orally administered at the same doses for two weeks.
(§4) Aβ1-42 ([…]) was surgically injected into the brain ventricle of anesthetized mice (intravenous [IV] injection of xylazine [5 mg/kg] and ketamine [50 mg/kg]). The skull was precisely punctured at specific coordinates using a small drill, and amyloid beta was injected deeply into the brain using a microinjector. The control group underwent the same procedure with saline injections instead. Following surgery, the incision sites were disinfected and sutured, and the animals were allowed to recover in a cage.
as §1

acetylcholine (ACh) = assay: Brain tissue acetylcholine (ACh) level; parameters: species or system ICR male mice; settings: mouse, in vivo
Source text: as §2, §3, §4

[3] = molecular target: acetylcholinesterase (AChE) (Mus musculus, UniProt P21836); settings: SFN 10 mg/kg oral
Sequence of acetylcholinesterase (AChE) (P21836 32-614): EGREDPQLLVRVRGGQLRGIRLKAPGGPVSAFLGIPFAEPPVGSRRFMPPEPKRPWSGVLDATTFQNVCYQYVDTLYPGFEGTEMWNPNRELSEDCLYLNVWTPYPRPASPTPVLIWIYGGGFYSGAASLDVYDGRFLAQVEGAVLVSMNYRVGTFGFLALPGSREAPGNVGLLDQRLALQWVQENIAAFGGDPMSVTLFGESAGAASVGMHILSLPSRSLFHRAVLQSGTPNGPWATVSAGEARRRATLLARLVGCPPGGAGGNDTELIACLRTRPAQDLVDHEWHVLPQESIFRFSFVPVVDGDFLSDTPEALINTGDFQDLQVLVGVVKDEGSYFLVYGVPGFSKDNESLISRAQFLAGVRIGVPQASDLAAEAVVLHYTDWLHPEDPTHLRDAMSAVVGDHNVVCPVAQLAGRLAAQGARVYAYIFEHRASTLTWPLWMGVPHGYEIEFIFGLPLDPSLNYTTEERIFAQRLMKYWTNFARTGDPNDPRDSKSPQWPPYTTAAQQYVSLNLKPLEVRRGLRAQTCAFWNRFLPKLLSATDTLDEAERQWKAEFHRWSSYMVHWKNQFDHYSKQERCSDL
Description: All efforts were made to minimize suffering and the number of animals used. One day before dissection, only water was provided and food was fasted. Acclimatized experimental animals were grouped into seven containing 7 mice each (Table 1 and Fig. 1).
as §3, §4

[4] = cited from earlier work
Aβ1-42-induced AD mice [5] = assay: Brain tissue TUNEL assay (hippocampal apoptosis); format: in vivo, ICR male mice; settings: Aβ1-42 AD mice; SFN 10 mg/kg oral; AD group 40.3 ± 10.4
Source text: as §2, §3, §4

[6] = cited from earlier work; remark: listed apart in the source
[7] = following the consumption of broccoli sprouts or supplements; cited from earlier work
Aβ1-42-induced AD mice [8] = assay: Passive avoidance test; format: in vivo, ICR male mice
Source text: as §2, §3, §4
The passive avoidance experiment is a commonly used method for assessing enhancements in learning and memory capabilities. The experiment was conducted in a room with noise levels below 60 dB and dim lighting. The measuring instrument, Shuttle Box Test Package (Med Associates Inc., Vermont, USA), consisting of two rooms of equal size (25 × 25 cm). An automatic guillotine door was installed on the wall separating the two rooms. One room was illuminated (20 W light bulb), while the other remained dark. The mice were trained to associate the dark environment with an aversive stimulus. In the experiment (n = 3), upon entry into the dark room, an electric shock (foot-shock) was administered by passing a current of 3 mA for 5 s through a stainless-steel grid beneath the room. This procedure facilitated the mouse's recognition of the association between the dark environment and the aversive stimulus.

[9] = In vivo oral absorption of SFN and BSE in rats (pharmacokinetics); parameters: species or system Sprague–Dawley rats; settings: for AUCinf / AUClast / Cmax / MRT / T1/2 / Tmax: plasma SFN
Description: Sprague–Dawley rats (males, 6–7 weeks old, 200–250 g) were purchased from G-bio (Gwangju, Republic of Korea). The animals were housed under standard conditions in terms of temperature (23 ± 2 °C), relative humidity (RH; 55 ± 10 %), and light (12/12 h light/dark cycle). The animals had ad libitum access to a standard laboratory diet (Nestlé Purina PetCare Research, St. Louis, MO, USA) and ion-sterilized tap water. Ethical approval for this study was obtained from the IACUC of Mokpo National University (Jeonnam, Republic of Korea; approval no. MNU-IACUC-2023-009).
To examine the distinction of pharmacokinetic parameters of SFN after IV injection and oral administration of SFN or BSEP (containing 3 % SFN), Sprague–Dawley rats were orally administered 400 μL of SFN dissolved in 0.5 % sodium CMC (5 mg/kg, SFN-oral) or aqueous solution of BSEP (equivalent to 5 mg/kg SFN, BSEP-oral). To calculate the oral bioavailability, rats were intravenously injected with 200 μL of SFN (5 mg/kg SFN dissolved in 0.5 % sodium CMC) via the femoral vein. Then, 200-μL blood samples were collected from the cannulated femoral artery at predetermined time points and immediately centrifuged at 13,000×g for 5 min at 4 °C. The separated plasma samples were kept frozen at −80 °C until analysis.
To determine the plasma concentrations of SFN, the working solutions of SFN of 20, 15, 10, 5, 2, 1, 0.6, and 0.2 μg/mL, and 5 μg/mL phenylethyl isothiocyanate (internal standard, IS) were prepared in acetonitrile. Then, 10 μL of each working solution and 10 μL of IS were spiked with 180 μL of rat blank plasma for standard solution. Separately, 180 μL of each plasma sample was spiked with 10 μL of IS solution and 10 μL of acetonitrile. Next, 200 μL of a mixture of acetonitrile, water, and ethanol (25:25:50, v/v/v) was added to each plasma sample spiked with IS, followed by vortex mixing. After centrifugation at 13,000×g for 5 min at room temperature, the supernatant was transferred to another vial for further extraction using an HLB SPF μElution plate (Waters Corp., Milford, MA, USA). Each well of the SPE plate was conditioned and equilibrated by 200 μL of methanol and water, respectively. Then, the 400 μL of the collected supernatant was added to each well of the plate and aspirated under a 5 H g vacuum. After washing with 200 μL of water and 50 % methanol, each well was eluted with 400 μL (200 μL × 2 times) of acetonitrile.
Each eluted sample (10 μL) was injected into a UPLC system (ACQUITY UPLC; Waters Corp.) equipped with an ACQUITY UPLC BEH C18 column (2.1 × 50 mm, 1.7 μm; Waters Corp.) at 50 °C. SFN and IS were eluted by the mobile phase (10 mM ammonium acetate in water:0.1 % formic acid in acetonitrile [3:7, v/v]) at a flow rate of 0.6 mL/min. A mass spectrometer (Xevo TQ-S; Waters Corp.) was used for ionization of SFN or the IS (in positive ion multiple reaction-monitoring mode) at an electrospray voltage of 3.0 kV, with a source temperature of 120 °C, desolvation temperature of 500 °C, and desolvation gas flow rate of 800 L/h. SFN quantification was performed by reference to the m/z transition 178.0 → 114.0 at a cone voltage of 24 V and collision energy of 30 eV; for IS, the m/z transition was 164.0 → 130.0 at a cone voltage of 23 V and collision energy of 22 eV.

[10] = rodents, within a few hours post-administration, oral or intraperitoneal; cited from earlier work
[11] = single oral dose 5 mg/kg SFN (SFN in 0.5 % sodium CMC; BSEP aqueous solution equivalent to 5 mg/kg SFN)

1-isothiocyanato-4-methylsulfonylbutane [SFN]
time spent in the quadrant where the platform was previously located (Aβ1-42-induced AD mice [1]; SFN 10 mg/kg): 8.83 ± 5.92 s
reduction of TNF-α expression versus control (LPS stimulation only) (TNF-α; 1:100 dilution (of SFN 210 ppm; of 1 % BSEP)): 30–40%
TNF-α gene expression (TNF-α; undiluted (positive control SFN 210 ppm; 1 % BSEP solution), LPS 1 μg/mL): significant downregulation
escape latency times by the third day (Aβ1-42-induced AD mice [2]; SFN 10 mg/kg oral): comparable to those of the normal control group
average escape latency time over the three days (Aβ1-42-induced AD mice [2]; SFN 10 mg/kg oral): 28.01 ± 2.95 s
brain ACh level (acetylcholine (ACh)): 1.2 ± 0.1 nmol/µL
brain AChE activity relative to normal group (100 %) ([3]; AD control 162 %): 105%
brain AChE activity ([3]; AD control 1707.1 ± 97.12, normal 1057.44 ± 75.41): 1104.65 ± 123.41 mU/mL
typical urinary excretion, of the administered dose [4]: 70−90%
number of TUNEL-positive cells in the hippocampus (Aβ1-42-induced AD mice [5]): 19.0 ± 5.2 cells
doses that may lead to toxicity [6]: exceeding 150 mg/kg body weight
SFN level detected in human plasma [7]: nanomolar to low micromolar levels
time spent in the brightly lit room before entering the dark room (Aβ1-42-induced AD mice [8]; SFN 10 mg/kg oral, AD control 19): 90 s
time spent in the brightly lit room before entering the dark room (Aβ1-42-induced AD mice [8]; SFN 10 mg/kg oral, AD control 51): 166 s
time spent in the brightly lit room before entering the dark room (Aβ1-42-induced AD mice [8]; SFN 10 mg/kg oral, first of three values, AD control 25): 37 s
Bioavailability ([9]; single IV dose 5 mg/kg SFN (reference)): 100%
AUCinf ([9]; single IV dose 5 mg/kg SFN): 390 ± 33.7 ng·h/mL
AUClast ([9]; single IV dose 5 mg/kg SFN): 380 ± 27.5 ng·h/mL
Cmax ([9]; single IV dose 5 mg/kg SFN): 414 ± 65.1 ng/mL
MRT ([9]; single IV dose 5 mg/kg SFN): 0.971 ± 0.224 h
T1/2 ([9]; single IV dose 5 mg/kg SFN): 1.35 ± 0.806 h
Tmax ([9]; single IV dose 5 mg/kg SFN): 0.170 ± 0.000 h
AUCinf [9, 11]: 259 ± 39.6 ng·h/mL
AUClast [9, 11]: 241 ± 46.1 ng·h/mL
Cmax [9, 11]: 96.2 ± 13.1 ng/mL
MRT [9, 11]: 3.14 ± 0.835 h
T1/2 [9, 11]: 1.82 ± 0.574 h
Tmax [9, 11]: 1.00 ± 0.000 h
Bioavailability ([9]; single oral dose 5 mg/kg SFN (SFN in 0.5 % sodium CMC; BSEP aqueous solution equivalent to 5 mg/kg SFN), versus SFN-IV): 63.4 ± 12.1%
SFN brain concentrations [10]: 0.5 to 2 µM

COc1cc2c(cc1OC)C(=O)C(CC1CCN(Cc3ccccc3)CC1)C2 (stereo not drawn) [donepezil]
time spent in the quadrant where the platform was previously located (Aβ1-42-induced AD mice [1]; donepezil 5 mg/kg): 16.26 ± 4.61 s
escape latency times by the third day (Aβ1-42-induced AD mice [2]; donepezil 5 mg/kg oral): comparable to those of the normal control group
average escape latency time over the three days (Aβ1-42-induced AD mice [2]; donepezil 5 mg/kg oral): 34.97 ± 3.21 s
time spent in the brightly lit room before entering the dark room (Aβ1-42-induced AD mice [8]; donepezil 5 mg/kg oral, AD control 19): 100 s
time spent in the brightly lit room before entering the dark room (Aβ1-42-induced AD mice [8]; donepezil 5 mg/kg oral, AD control 51): 149 s
time spent in the brightly lit room before entering the dark room (Aβ1-42-induced AD mice [8]; donepezil 5 mg/kg oral, first of three values, AD control 25): 29 s
